pIC50: −log10 of the molar value. Several values for one entry are separate records, joined by “and”; a condition that tells them apart may be missing. Equal values may be shown once.
System: 439559-082-T-J2-PDC spheroid viability
Assay: Anticancer human tumor 439559-082-T-J2-PDC patient-derived colon adenocarcinoma cell line growth inhibition [POLQ]
Settings: spheroids with HUVEC and MSC; for viability, T/C: stronger effect = lower value
Procedure: Multicellular complex tumor spheroid response to Polymerase (POL) inhibitors (novobiocin, ART-558, RP6685) in combination with a variety of drugs and investigational agents in selected tumor cell lines
The POL inhibitors (novobiocin, ART-558, and RP6685) were evaluated both individually and in combination with standard of care and investigational anticancer small molecules within a complex spheroid model of solid tumors. . Complex spheroids include a stromal component modeled by human endothelial cells (HUVEC) and fibroblasts modeled by human mesenchymal stem cells (MSCs). The concentration ranges selected for each drug and investigational agent were based upon clinically achievable concentrations if the clinical Cmax of the agent was known.
Compounds. The drugs and investigational agents: novobiocin (NSC847541), ART-558 (NSC835418), RP-6685 (NSC848927), peposertib (NSC802822), ceralasertib (NSC780249), elimusertib (NSC800525), camonsertib (NSC841442), AZD-1390 (NSC803789), olaparib (NSC753686), talazoparib (NSC767125), rucaparib (NSC756644), sotorasib (NSC818433), MRTX-1133 (NSC836407), SN-38 (NSC673596), topotecan (NSC609699), epotoside (NSC141540), doxorubicin (NSC123127), gemcitabine (NSC613327), 5-fluorouracil (NSC19893), paclitaxel (NSC125973), vemurafenib (NSC761431), MSA-2 (NSC828583), SN-011 (NSC837082), adavosertib (NSC754352), prexasertib (NSC758257), carboplatin (NSC241240) and oxaliplatin (NSC266046), were obtained from the National Cancer Institute (NCI) Developmental Therapeutics Program Chemical Repository (21). The FDA-approved anticancer drug set is available from the Developmental Therapeutics Program at https://dtp.cancer.gov/organization/dscb/obtaining/. […] The stock solutions were prepared in dimethyl sulfoxide (DMSO, Sigma-Aldrich, St. Louis, MO, cat. D2650), except for the platinum compounds which were prepared in saline (Quality Biological, Gaithersburg, MD, cat. 114-055-101), at 800-fold the tested concentration and stored at -70 degrees C prior to their use. All drugs and investigational agents were tested over a range starting from a high concentration at or near the clinical Cmax and decreasing in half-log increments. If the clinical Cmax for an agent had not been determined, the highest concentration tested was 10 microM, except for SN-38, which was tested at a high concentration of 1 microM.
Cell Culture. All cells were maintained in an incubator at 37 degrees C and 5% CO2 with 95% humidity. The PDC lines were cultured according to standard operating procedures established by the NCI PDMR (https://pdmr.cancer.gov). Table 3 of the manuscript, lists the cell lines along with the number of the three cell types plated to form the mct-spheroids and media for tumor cell growth. After thawing, all PDC lines, except 997537-175-T-J1-PDC and 415267-285-R-J2-PDC, were cultured in Matrigel-coated flasks prepared with a working solution of 1X Ham's F-12 nutrient mix, without supplementation (Thermo Fisher Scientific, cat. 11765054), 100 U/mL penicillin-streptomycin (Thermo Fisher Scientific, cat. 15140122), and 2.5% Matrigel (Corning Inc., Corning, NY, cat. 354248) for the first three passages. The two PDC lines 997537-175-T-J1-PDC and 415267-285-R-J2-PDC were cultured on uncoated flasks. The 857933-349-R-J2-PDC line was cultured in 6C/Colon 1B media containing advanced DMEM/F-12 (Thermo Fisher Scientific, cat. 12634028), 10 mM HEPES (Thermo Fisher Scientific, cat. 15630080), 1X GlutaMAX supplement (Thermo Fisher Scientific, cat. 35050061), 0.1 mg/mL primocin (InvivoGen, San Diego, CA, cat. ant-pm-2), 10% defined fetal bovine serum, heat inactivated (HyClone Laboratories Inc., Logan, UT, cat. SH30070.03HI), 50% L-WRN conditioned media (ATCC, cat. CRL-3276), 1.25 mM N-Acetyl-L-cysteine (Sigma-Aldrich, cat. A9165), 10 mM nicotinamide (Sigma-Aldrich, cat. N0636), 1X B-27 supplement (Thermo Fisher Scientific, cat. 17504044), 1X N-2 supplement (Thermo Fisher Scientific, cat. […]

[1] = curve of first compound, second compound 0.0316 µM
[2] = curve of first compound, second compound 0.1 µM
[3] = curve of first compound, second compound 0.316 µM
[4] = curve of first compound, second compound 1 µM
[5] = curve of first compound, second compound 3.16 µM
[6] = curve of first compound, second compound 10 µM
[7] = second compound 0.0316 µM, first compound 0.0316 µM
[8] = second compound 0.0316 µM, first compound 0.1 µM
[9] = second compound 0.0316 µM, first compound 0.316 µM
[10] = second compound 0.0316 µM, first compound 1 µM
[11] = second compound 0.1 µM, first compound 0.0316 µM
[12] = second compound 0.1 µM, first compound 0.1 µM
[13] = second compound 0.1 µM, first compound 0.316 µM
[14] = second compound 0.1 µM, first compound 1 µM
[15] = second compound 0.316 µM, first compound 0.0316 µM
[16] = second compound 0.316 µM, first compound 0.1 µM
[17] = second compound 0.316 µM, first compound 0.316 µM
[18] = second compound 0.316 µM, first compound 1 µM
[19] = second compound 1 µM, first compound 0.0316 µM
[20] = second compound 1 µM, first compound 0.1 µM
[21] = second compound 1 µM, first compound 0.316 µM
[22] = second compound 1 µM, first compound 1 µM
[23] = second compound 3.16 µM, first compound 0.0316 µM
[24] = second compound 3.16 µM, first compound 0.1 µM
[25] = second compound 3.16 µM, first compound 0.316 µM
[26] = second compound 3.16 µM, first compound 1 µM
[27] = second compound 10 µM, first compound 0.0316 µM
[28] = second compound 10 µM, first compound 0.1 µM
[29] = second compound 10 µM, first compound 0.316 µM
[30] = second compound 10 µM, first compound 1 µM
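Also: spheroids exposed to compounds for seven days before readout.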
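For viability, T/C in this document: 100% = DMSO vehicle control viability.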

CCc1cc2c(N3CCc4c(cc(Cn5ccnc5)cc4-c4cn(C)nc4C(F)(F)F)C3=O)ccnc2c(OC)n1 + COC1C(OC(N)=O)C(O)C(Oc2ccc3c(O)c(NC(=O)c4ccc(O)c(CC=C(C)C)c4)c(=O)oc3c2C)OC1(C)C
pIC50 [1]: < 5.00 | pIC50 [2]: < 5.00 | pIC50 [3]: < 5.00 | pIC50 [4]: < 5.00 | pIC50 [5]: < 5.00 | pIC50 [6]: < 5.00 | viability, T/C [7]: 95.2% | viability, T/C [8]: 104% | viability, T/C [9]: 97.5% | viability, T/C [10]: 95.2% | viability, T/C (second compound 0.0316 µM, first compound 3.16 µM): 91.6% | viability, T/C (second compound 0.0316 µM, first compound 10 µM): 95.3% | viability, T/C [11]: 100% | viability, T/C [12]: 103% | viability, T/C [13]: 96.1% | viability, T/C [14]: 90.7% | viability, T/C (second compound 0.1 µM, first compound 3.16 µM): 99.2% | viability, T/C (second compound 0.1 µM, first compound 10 µM): 95.2% | viability, T/C [15]: 107% | viability, T/C [16]: 107% | viability, T/C [17]: 101% | viability, T/C [18]: 109% | viability, T/C (second compound 0.316 µM, first compound 3.16 µM): 91.5% | viability, T/C (second compound 0.316 µM, first compound 10 µM): 90.3% | viability, T/C [19]: 110% | viability, T/C [20]: 106% | viability, T/C [21]: 99.4% | viability, T/C [22]: 92.9% | viability, T/C (second compound 1 µM, first compound 3.16 µM): 93.1% | viability, T/C (second compound 1 µM, first compound 10 µM): 87.6% | viability, T/C [23]: 99.6% | viability, T/C [24]: 109% | viability, T/C [25]: 99.4% | viability, T/C [26]: 92% | viability, T/C (second compound 3.16 µM, first compound 3.16 µM): 93% | viability, T/C (second compound 3.16 µM, first compound 10 µM): 89.6% | viability, T/C [27]: 106% | viability, T/C [28]: 93.7% | viability, T/C [29]: 99.1% | viability, T/C [30]: 101% | viability, T/C (second compound 10 µM, first compound 3.16 µM): 102% | viability, T/C (second compound 10 µM, first compound 10 µM): 94.5%

COc1ccc([C@@H](O)c2cc(-c3ncnc4cc(N5CCOCC5)ccc34)c(F)cc2Cl)nn1
viability, T/C (compound 0.0316 µM): 94.6% and 84.4% and 97.3% | viability, T/C (compound 0.1 µM): 98.2% and 88.9% and 93% | viability, T/C (compound 0.316 µM): 93.3% and 85.8% and 90.6% | viability, T/C (compound 1 µM): 103% and 90.1% and 94.2% | viability, T/C (compound 3.16 µM): 89.3% and 96.5% and 85.9% | viability, T/C (compound 10 µM): 82.2% (2×) and 75.2% | pIC50 (curve of compound): < 5.00

CCc1c2c(nc3ccc(O)cc13)-c1cc3c(c(=O)n1C2)COC(=O)[C@]3(O)CC + Cc1cccc(N(C)C(=O)C2C(O)CCN2c2nc(C)cc(C(F)(F)F)c2C#N)c1
pIC50 [1]: 6.13 | pIC50 [2]: 6.15 | pIC50 [3]: 6.16 | pIC50 [4]: 6.15 | pIC50 [5]: 6.01 | pIC50 [6]: 6.15 | viability, T/C (second compound 0.0316 µM, first compound 0.00316 µM): 92.9% | viability, T/C (second compound 0.0316 µM, first compound 0.01 µM): 82.2% | viability, T/C [7]: 70.8% | viability, T/C [8]: 74.7% | viability, T/C [9]: 64% | viability, T/C [10]: 43.2% | viability, T/C (second compound 0.1 µM, first compound 0.00316 µM): 90.9% | viability, T/C (second compound 0.1 µM, first compound 0.01 µM): 87% | viability, T/C [11]: 74.5% | viability, T/C [12]: 68.3% | viability, T/C [13]: 65.7% | viability, T/C [14]: 42.8% | viability, T/C (second compound 0.316 µM, first compound 0.00316 µM): 95.3% | viability, T/C (second compound 0.316 µM, first compound 0.01 µM): 82.2% | viability, T/C [15]: 76.3% | viability, T/C [16]: 70.6% | viability, T/C [17]: 63% | viability, T/C [18]: 42.9% | viability, T/C (second compound 1 µM, first compound 0.00316 µM): 90.9% | viability, T/C (second compound 1 µM, first compound 0.01 µM): 90.9% | viability, T/C [19]: 74% | viability, T/C [20]: 67.1% | viability, T/C [21]: 62.5% | viability, T/C [22]: 44.9% | viability, T/C (second compound 3.16 µM, first compound 0.00316 µM): 90.3% | viability, T/C (second compound 3.16 µM, first compound 0.01 µM): 76.8% | viability, T/C [23]: 72.1% | viability, T/C [24]: 71% | viability, T/C [25]: 62.8% | viability, T/C [26]: 47.2% | viability, T/C (second compound 10 µM, first compound 0.00316 µM): 80.6% | viability, T/C (second compound 10 µM, first compound 0.01 µM): 76.3% | viability, T/C [27]: 66.9% | viability, T/C [28]: 68.4% | viability, T/C [29]: 60.5% | viability, T/C [30]: 44.9%

— PubChem BioAssay AID1963841 (Molecular Pharmacology Branch, DTP, NCI, 2024)
